Measured values published in the supplement of paper PMC10331698.
± gives the standard deviation of the averaged measurements.

Legend:
Experiment in all cases: level (log10 ratio to DMSO vehicle control); higher = higher biomarker level / cell amount than vehicle control
[1] = compound: O=P(O)(O)CCC(F)(F)C(F)(F)C(F)(F)C(F)(F)C(F)(F)C(F)(F)F [2-(Perfluorohexyl)ethylphosphonic acid]; conditions: in DMSO
Experimental: (§1)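 BioMAP Diversity Plus panel of 12 human primary cell co-culture systems (3C, 4H, LPS, SAg, BT, BF4T, BE3C, CASM3C, HDF3CGF, KF3CT, MyoF, Mphg). Compounds were added 1 h before stimulation and left for 24 h (MyoF 48 h; BT 72 h for soluble read-outs or 6 d for IgG). Biomarkers were read by ELISA, cytotoxicity by SRB, PBMC viability and proliferation by Alamar Blue. Each well value was divided by the mean of 8 DMSO control wells on the same plate and log10 transformed; duplicate blinded samples were tested at 4 concentrations.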

[2] = compound: O=C(O)C(F)(F)C(F)(F)C(F)(F)C(F)(F)C(F)(F)C(F)(F)C(F)(F)F [Ammonium perfluorooctanoate]; conditions: in DMSO
Experimental: as §1

[3] = compound: C=CC(=O)OCCC(F)(F)C(F)(F)C(F)(F)C(F)(F)C(F)(F)C(F)(F)C(F)(F)C(F)(F)F [8:2 Fluorotelomer acrylate]; conditions: in DMSO
Experimental: as §1

[4] = compound: C=CC(=O)OCC(F)(F)C(F)(F)C(F)(F)C(F)(F)COC(=O)C=C [1H,1H,6H,6H-Perfluorohexane-1,6-diol diacrylate]; conditions: 6700 nM; in DMSO
Experimental: as §1

[5] = compound: O=C(CC(=O)C(F)(F)C(F)(F)C(F)(F)F)c1cccs1 [(Perfluorobutyryl)-2-thenoylmethane]; conditions: in DMSO
Experimental: as §1

[6] = compound: C=CC(=O)OCC(F)(F)C(F)(F)C(F)(F)C(F)(F)C(F)(F)C(F)(F)C(F)(F)C(F)F [1H,1H,9H-Perfluorononyl acrylate]; conditions: in DMSO
Experimental: as §1

[7] = compound: OC(C(F)(F)F)(C(F)(F)F)C(O)(C(F)(F)F)C(F)(F)F [Perfluoropinacol]; conditions: in DMSO
Experimental: as §1

[8] = compound: FC(F)(I)C(F)(F)C(F)(F)C(F)(F)C(F)(F)C(F)(F)I [1,6-Diiodoperfluorohexane]; conditions: 6700 nM; in DMSO
Experimental: as §1

| Test System | level (log10) ([1]; 6700 nM) | level (log10) ([1]; 20000 nM) | level (log10) ([1]; 60000 nM) | level (log10) ([2]; 6700 nM) | level (log10) ([2]; 20000 nM) | level (log10) ([2]; 60000 nM) | level (log10) ([3]; 6700 nM) | level (log10) ([3]; 20000 nM) | level (log10) ([3]; 60000 nM) | level (log10) [4] | level (log10) ([5]; 6700 nM) | level (log10) ([5]; 20000 nM) | level (log10) ([6]; 6700 nM) | level (log10) ([6]; 20000 nM) | level (log10) ([6]; 60000 nM) | level (log10) ([7]; 6700 nM) | level (log10) ([7]; 20000 nM) | level (log10) [8] |
| --- | --- | --- | --- | --- | --- | --- | --- | --- | --- | --- | --- | --- | --- | --- | --- | --- | --- | --- |
| KF3CT:IL-1alpha | 0.0005 ± 0.0078 | 0.0225 ± 0.00071 | 0.0455 ± 0.012 | -0.0065 ± 0.00071 | -0.026 ± 0.0071 | -0.079 ± 0.025 | 0.0005 ± 0.011 | -0.0245 ± 0.00071 | -0.0355 ± 0.04 | -0.0545 ± 0.035 | 0.0165 ± 0.005 | 0.009 ± 0.0028 | 0.021 ± 0.0042 | 0.023 ± 0.031 | 0.018 ± 0.0085 | 0.0765 ± 0.028 | 0.155 ± 0.032 | -0.073 |
| KF3CT:CXCL8/IL-8 | -0.021 ± 0.0071 | 0.002 ± 0.0014 | 0.0355 ± 0.0035 | 0.0075 ± 0.032 | 0.036 ± 0.018 | 0.034 ± 0.02 | -0.011 ± 0.0014 | -0.047 ± 0.076 | -0.117 ± 0.053 | 0.0005 ± 0.021 | -0.037 ± 0.027 | -0.027 ± 0.025 | -0.0015 ± 0.0092 | 0.016 ± 0.0028 | 0.012 ± 0.033 | -0.018 ± 0.011 | -0.005 ± 0.0042 | -0.071 |
| lMphg:CCL3/MIP-1alpha | 0.035 ± 0.044 | 0.019 ± 0.028 | 0.0315 ± 0.019 | 0.003 ± 0.018 | 0.013 ± 0.024 | 0.0395 ± 0.029 | 0.056 ± 0.011 | 0.0485 ± 0.047 | 0.0325 ± 0.025 | -0.0045 ± 0.07 | 0.0225 ± 0.029 | 0.012 ± 0.057 | 0.015 | 0.012 ± 0.023 | 0.061 ± 0.0028 | 0.116 ± 0.047 | 0.116 ± 0.062 | -0.016 |
| MyoF:MMP-1 | 0.008 ± 0.0042 | 0.008 ± 0.0099 | 0.0755 ± 0.052 | -0.029 ± 0.016 | -0.0145 ± 0.019 | 0.0415 ± 0.013 | -0.0295 ± 0.0092 | -0.06 ± 0.071 | 0.0075 ± 0.098 | 0.231 ± 0.023 | -0.0565 ± 0.052 | -0.0005 ± 0.018 | -0.001 ± 0.054 | 0.0505 ± 0.0064 | 0.27 ± 0.033 | -0.0075 ± 0.012 | -0.027 ± 0.0042 | 0.469 |
| HDF3CGF:CXCL8/IL-8 | -0.005 ± 0.0042 | -0.0125 ± 0.00071 | 0.012 ± 0.0071 | -0.0025 ± 0.005 | 0.002 ± 0.0042 | 0.003 | -0.01 ± 0.0085 | -0.0105 ± 0.0035 | -0.0095 ± 0.026 | -0.021 ± 0.0057 | 0.01 ± 0.0014 | 0.015 ± 0.0071 | -0.009 ± 0.0042 | 0.0075 ± 0.021 | 0.0085 ± 0.0035 | 0.025 ± 0.0071 | 0.02 ± 0.0028 | -0.276 |
| lMphg:sIL-10 | -0.0015 ± 0.083 | -0.091 ± 0.0014 | -0.0775 ± 0.09 | -0.0655 ± 0.049 | -0.042 ± 0.021 | -0.16 ± 0.028 | -0.058 ± 0.016 | -0.014 ± 0.062 | -0.0465 ± 0.012 | -0.067 ± 0.014 | 0.0065 ± 0.071 | -0.429 ± 0.093 | -0.0335 ± 0.015 | 0.0005 ± 0.0092 | 0.029 ± 0.033 | 0.031 ± 0.017 | -0.498 ± 0.24 | -0.219 |
| CASM3C:SRB | -0.0005 ± 0.0035 | -0.012 ± 0.017 | -0.016 ± 0.02 | -0.0015 ± 0.00071 | -0.001 ± 0.0099 | -0.0005 ± 0.00071 | -0.002 | 0.005 ± 0.0099 | 0.0085 ± 0.0064 | 0 ± 0.0014 | 0.0105 ± 0.0064 | -0.0125 ± 0.0078 | 0.0075 ± 0.015 | 0.005 ± 0.0014 | -0.001 ± 0.014 | -0.02 ± 0.0099 | -0.061 ± 0.0057 | 0.002 |
| KF3CT:MMP-9 | -0.0305 ± 0.012 | -0.024 ± 0.0071 | -0.0565 ± 0.026 | 0.0045 ± 0.018 | 0.017 ± 0.0099 | 0.0105 ± 0.023 | -0.042 | -0.0885 ± 0.044 | -0.132 ± 0.047 | -0.035 ± 0.064 | -0.107 ± 0.027 | -0.122 ± 0.012 | -0.013 ± 0.014 | -0.0085 ± 0.0035 | -0.0285 ± 0.04 | 0.01 ± 0.018 | -0.0245 ± 0.029 | -0.136 |
